Measurements: patent US12023330B2, “Use of manzamines as antiproliferative agent” (priority 2020, dated 2024)

How the values were obtained:
[1] = test system: cervical cancer cell lines (SiHa and CaSki); experiment: Cell growth of manzamine-related compounds; format: cell-based, human
Description: (§1) Based on MoIN, the additional manzamine-related compounds such as manzamine D (2), manzamine F (3), 8-hydroxymanzamine A (4), and ircinal A (5) were tested for their biological activities targeting cervical cancer cell lines (SiHa and CaSki).
Cell Growth Kinetics. Cervical cancer cells (1×10^6) or HKc (2×10^5) were plated in 100 mm tissue culture petri dish or 6-well plates. Following overnight incubation, cells were treated with 2 μM or 4 μM concentrations of manzamine A (1) derivatives for different time points (24, 48 and 72 hours). Dimethyl sulphoxide (DMSO) was used as control. The cell proliferation activity was determined by cell counting under the microscope with a hemocytometer using trypan blue staining.

[2] = test system: normal human keratinocytes (HKc); experiment: Cell growth kinetics of normal keratinocytes; format: cell-based; conditions: 4 μM stated for compound 4; 48 h and 72 h; vs DMSO control
Description: as §1
Generation of Normal Human Keratinocytes (HKc). The generation and processing of normal HKc from de-identified foreskin tissue samples has previously been described in our studies, see Pirisi, L.; Yasumoto, S.; Feller, M.; Doniger, J.; DiPaolo, J. A. J. Virol. 1987, 61, 1061-1066, and was implemented with the following modifications: dispase was used in lieu of collagenase, and a trypsinization step was added to release the epidermal cells. Briefly, to generate normal HKc primary cultures, the foreskin tissue, free of subcutaneous tissue, was placed in 10% dispase in phosphate buffer saline (PBS) and incubated overnight at 37° C. The next day, the epidermis was separated from the dermis, and processed mechanically by shredding the tissue into smaller pieces that were then treated with Trypsin/EDTA for 10 minutes at 37° C. Following the addition of fetal bovine serum (10%) to stop the trypsin action, cells were collected by centrifugation and plated in keratinocytes serum free medium (KSFM).
Cell Growth Kinetics. […] The cell proliferation activity was determined by cell counting under the microscope with a hemocytometer using trypan blue staining.

SMILES	effect on cervical cancer cell growth [1]	cell growth kinetics of normal HKc [2]
Oc1cccc2c1[nH]c1c(C3=C[C@@]4(O)CC/C=C\CCCCN5CC[C@@H]3[C@]3(C[C@@H]6/C=C\CCCCN6[C@H]34)C5)nccc12 [8-hydroxymanzamine A]	showed inhibition	inhibited significantly
O=C1CCCN2[C@@H](CC1)C[C@]13CN4CCCC/C=C\CC[C@](O)(C=C(c5nccc6c5[nH]c5c(O)cccc56)C1CC4)[C@H]23 (some centres unmarked) [manzamine F]	did not reveal any effect	
O[C@]12C=C(C3NCCc4c3[nH]c3ccccc43)[C@@H]3CCN(CCCC/C=C\CC1)C[C@@]31C[C@@H]3/C=C\CCCCN3[C@H]12 (some centres unmarked) [manzamine D]	did not reveal any effect	
O=CC1=C[C@@]2(O)CC/C=C\CCCCN3CC[C@@H]1[C@]1(CC4/C=C\CCCCN4[C@H]12)C3 (some centres unmarked) [ircinal A]	did not reveal any effect	
